Laboratory results taken from ChEMBL document CHEMBL3885861, “Open TG-GATES”.

Species on record: Rattus norvegicus
Assay: Open TG-GATES - Regimen: Daily Repeat
Assay type: toxicity, organism-based, Sprague-Dawley
Set-up: regimen Daily Repeat, gender Male, age 6 weeks
Details: in vivo, po, route gavage; for APTT / Bas / Eos / Fbg / Hb / Ht / Lym / MCH / MCHC / MCV / Mono / Neu / PT / Plat / RBC / Ret / WBC: tissue Blood; for KIDNEY_L / KIDNEY_R / KIDNEY_TOTAL: tissue Kidney; for LIVER: tissue Liver; for A/G / ALP / ALT / AST / BUN / CRE / Ca / Cl / DBIL / GLC / IP / K / LDH / Na / PL / RALB / TBIL / TC / TG / TP / gamma-GTP: tissue Plasma
[1] = 10 mg/kg, 72 h, dose level Middle, time 3 day
[2] = 10 mg/kg, […], dose level Middle, time 7 day
[3] = 10 mg/kg, […], dose level Middle, time 14 day
[4] = 10 mg/kg, […], dose level Middle, time 28 day
[5] = 30 mg/kg, 72 h, dose level High, time 3 day
[6] = 30 mg/kg, […], dose level High, time 7 day
[7] = 30 mg/kg, […], dose level High, time 14 day
[8] = 30 mg/kg, […], dose level High, time 28 day

## Cn1cnc([N+](=O)[O-])c1Sc1ncnc2nc[nH]c12 [AZATHIOPRINE]
[1]
  TERMINAL_BW: 204.1 g
  APTT: 20.4 s
  Bas: 0%
  Eos: 0.8%
  Fbg: 324.8 mg/dL
  Hb: 13.4 g/dL
  Ht: 39.3%
  Lym: 83.6%
  MCH: 21.4 pg
  MCHC: 33.9%
  MCV: 62.9 fL
  Mono: 2%
  Neu: 12.4%
  PT: 15.7 s
  Plat: 125.8 x10_4/uL
  RBC: 625.6 x10_4/ul
  Ret: 5.2%
  WBC: 72.4 x10_2/uL
  KIDNEY_L: 0.9 g
  KIDNEY_R: 0.9 g
  KIDNEY_TOTAL: 1.9 g
  LIVER: 9.8 g
  A/G: 1.2
  ALP: 1704 IU/L
  ALT: 41.4 IU/L
  AST: 73 IU/L
  BUN: 16.2 mg/dL
  CRE: 0.1 mg/dL
  Ca: 11.2 mg/dL
  Cl: 106.2 meq/L
  DBIL: 0 mg/dL
  GLC: 184.8 mg/dL
  IP: 7.2 mg/dL
  K: 4.2 meq/L
  LDH: 196.8 IU/L
  Na: 143 meq/L
  PL: 148.2 mg/dL
  RALB: 3.1 g/dL
  TBIL: 0.014 mg/dL
  TC: 77.4 mg/dL
  TG: 85.2 mg/dL
  TP: 5.7 g/dL
  gamma-GTP: 1 IU/L
[2]
  TERMINAL_BW: 234.4 g
  APTT: 22.4 s
  Bas: 0%
  Eos: 1%
  Fbg: 325.8 mg/dL
  Hb: 13.7 g/dL
  Ht: 39%
  Lym: 83%
  MCH: 21.5 pg
  MCHC: 35.1%
  MCV: 61.5 fL
  Mono: 2.4%
  Neu: 12.4%
  PT: 15.4 s
  Plat: 143.7 x10_4/uL
  RBC: 635 x10_4/ul
  Ret: 6.2%
  WBC: 81.7 x10_2/uL
  KIDNEY_L: 1 g
  KIDNEY_R: 1 g
  KIDNEY_TOTAL: 2 g
  LIVER: 11.1 g
  A/G: 1.1
  ALP: 1444.2 IU/L
  ALT: 37.8 IU/L
  AST: 69.8 IU/L
  BUN: 18.2 mg/dL
  CRE: 0.1 mg/dL
  Ca: 10.7 mg/dL
  Cl: 105.8 meq/L
  DBIL: 0 mg/dL
  GLC: 193.2 mg/dL
  IP: 6.8 mg/dL
  K: 4.2 meq/L
  LDH: 265.2 IU/L
  Na: 142.8 meq/L
  PL: 166.4 mg/dL
  RALB: 3.1 g/dL
  TBIL: 0 mg/dL
  TC: 89.4 mg/dL
  TG: 104.6 mg/dL
  TP: 6 g/dL
  gamma-GTP: 1 IU/L
[3]
  TERMINAL_BW: 294.1 g
  APTT: 21.7 s
  Bas: 0%
  Eos: 0.6%
  Fbg: 333 mg/dL
  Hb: 14 g/dL
  Ht: 40.1%
  Lym: 81.4%
  MCH: 21.1 pg
  MCHC: 35%
  MCV: 60.3 fL
  Mono: 1.6%
  Neu: 14.8%
  PT: 15.6 s
  Plat: 116.8 x10_4/uL
  RBC: 664.6 x10_4/ul
  Ret: 4.2%
  WBC: 93.4 x10_2/uL
  KIDNEY_L: 1.1 g
  KIDNEY_R: 1.2 g
  KIDNEY_TOTAL: 2.3 g
  LIVER: 13.4 g
  A/G: 1.1
  ALP: 1327.6 IU/L
  ALT: 33.4 IU/L
  AST: 62.8 IU/L
  BUN: 17.8 mg/dL
  CRE: 0.2 mg/dL
  Ca: 11.3 mg/dL
  Cl: 105.2 meq/L
  DBIL: 0 mg/dL
  GLC: 200.2 mg/dL
  IP: 6.8 mg/dL
  K: 4 meq/L
  LDH: 161 IU/L
  Na: 143 meq/L
  PL: 174.4 mg/dL
  RALB: 3.2 g/dL
  TBIL: 0.006 mg/dL
  TC: 93.8 mg/dL
  TG: 93.4 mg/dL
  TP: 6.2 g/dL
  gamma-GTP: 1.8 IU/L
[4]
  TERMINAL_BW: 329.3 g
  APTT: 22.4 s
  Bas: 0%
  Eos: 1.4%
  Fbg: 347.6 mg/dL
  Hb: 11.8 g/dL
  Ht: 34.5%
  Lym: 74%
  MCH: 19.3 pg
  MCHC: 33.9%
  MCV: 56.9 fL
  Mono: 3.2%
  Neu: 19.4%
  PT: 16.5 s
  Plat: 95.9 x10_4/uL
  RBC: 615.2 x10_4/ul
  Ret: 2.4%
  WBC: 54.1 x10_2/uL
  KIDNEY_L: 1.3 g
  KIDNEY_R: 1.3 g
  KIDNEY_TOTAL: 2.6 g
  LIVER: 13.3 g
  A/G: 1.1
  ALP: 971.6 IU/L
  ALT: 82 IU/L
  AST: 182.8 IU/L
  BUN: 20.8 mg/dL
  CRE: 0.2 mg/dL
  Ca: 10.7 mg/dL
  Cl: 107 meq/L
  DBIL: 0.034 mg/dL
  GLC: 169.4 mg/dL
  IP: 6.3 mg/dL
  K: 3.9 meq/L
  LDH: 602 IU/L
  Na: 141.4 meq/L
  PL: 169.6 mg/dL
  RALB: 3.3 g/dL
  TBIL: 0.066 mg/dL
  TC: 102 mg/dL
  TG: 63.4 mg/dL
  TP: 6.4 g/dL
  gamma-GTP: 1.2 IU/L
[5]
  TERMINAL_BW: 201.9 g
  APTT: 19.5 s
  Bas: 0%
  Eos: 0.8%
  Fbg: 327.6 mg/dL
  Hb: 12.7 g/dL
  Ht: 37.9%
  Lym: 86%
  MCH: 21.7 pg
  MCHC: 33.5%
  MCV: 64.7 fL
  Mono: 2.2%
  Neu: 9.4%
  PT: 15.3 s
  Plat: 140.5 x10_4/uL
  RBC: 585.2 x10_4/ul
  Ret: 2.3%
  WBC: 55.5 x10_2/uL
  KIDNEY_L: 0.9 g
  KIDNEY_R: 0.9 g
  KIDNEY_TOTAL: 1.8 g
  LIVER: 9.7 g
  A/G: 1.2
  ALP: 1508.2 IU/L
  ALT: 33 IU/L
  AST: 68.2 IU/L
  BUN: 17.2 mg/dL
  CRE: 0.1 mg/dL
  Ca: 11.3 mg/dL
  Cl: 106 meq/L
  DBIL: 0 mg/dL
  GLC: 185 mg/dL
  IP: 6.8 mg/dL
  K: 4.4 meq/L
  LDH: 199.8 IU/L
  Na: 143 meq/L
  PL: 160.4 mg/dL
  RALB: 3.3 g/dL
  TBIL: 0.008 mg/dL
  TC: 91.8 mg/dL
  TG: 77 mg/dL
  TP: 6 g/dL
  gamma-GTP: 1.4 IU/L
[6]
  TERMINAL_BW: 220 g
  APTT: 21.5 s
  Bas: 0%
  Eos: 1%
  Fbg: 314.4 mg/dL
  Hb: 12.4 g/dL
  Ht: 36%
  Lym: 84.6%
  MCH: 22.1 pg
  MCHC: 34.5%
  MCV: 64.2 fL
  Mono: 1.8%
  Neu: 11.6%
  PT: 15.1 s
  Plat: 192.2 x10_4/uL
  RBC: 561.4 x10_4/ul
  Ret: 4.1%
  WBC: 73.3 x10_2/uL
  KIDNEY_L: 1 g
  KIDNEY_R: 1 g
  KIDNEY_TOTAL: 2 g
  LIVER: 10.9 g
  A/G: 1.1
  ALP: 1412.8 IU/L
  ALT: 29.6 IU/L
  AST: 75.2 IU/L
  BUN: 17.8 mg/dL
  CRE: 0.1 mg/dL
  Ca: 11.3 mg/dL
  Cl: 105.2 meq/L
  DBIL: 0 mg/dL
  GLC: 191.2 mg/dL
  IP: 6.6 mg/dL
  K: 4.1 meq/L
  LDH: 255.6 IU/L
  Na: 142.6 meq/L
  PL: 179.8 mg/dL
  RALB: 3.3 g/dL
  TBIL: 0.01 mg/dL
  TC: 98.2 mg/dL
  TG: 56.4 mg/dL
  TP: 6.2 g/dL
  gamma-GTP: 1 IU/L
[7]
  TERMINAL_BW: 226 g
  APTT: 28.3 s
  Bas: 0%
  Eos: 0.2%
  Fbg: 458.2 mg/dL
  Hb: 12.5 g/dL
  Ht: 35%
  Lym: 85.8%
  MCH: 21.8 pg
  MCHC: 35.6%
  MCV: 61.2 fL
  Mono: 2%
  Neu: 10.6%
  PT: 18.9 s
  Plat: 86.4 x10_4/uL
  RBC: 571.6 x10_4/ul
  Ret: 3%
  WBC: 49.6 x10_2/uL
  KIDNEY_L: 1.1 g
  KIDNEY_R: 1.1 g
  KIDNEY_TOTAL: 2.1 g
  LIVER: 11.5 g
  A/G: 0.9
  ALP: 976.6 IU/L
  ALT: 135 IU/L
  AST: 523.6 IU/L
  BUN: 31.6 mg/dL
  CRE: 0.2 mg/dL
  Ca: 11.2 mg/dL
  Cl: 106.8 meq/L
  DBIL: 0.036 mg/dL
  GLC: 168.8 mg/dL
  IP: 8.4 mg/dL
  K: 4.8 meq/L
  LDH: 1529.2 IU/L
  Na: 142.6 meq/L
  PL: 149.6 mg/dL
  RALB: 3 g/dL
  TBIL: 0.074 mg/dL
  TC: 94.8 mg/dL
  TG: 35.8 mg/dL
  TP: 6.5 g/dL
  gamma-GTP: 1.4 IU/L
[8]
  TERMINAL_BW: 300.4 g
  APTT: 24.3 s
  Bas: 0%
  Eos: 1%
  Fbg: 339.5 mg/dL
  Hb: 12.4 g/dL
  Ht: 35.6%
  Lym: 87%
  MCH: 21.5 pg
  MCHC: 34.9%
  MCV: 61.6 fL
  Mono: 1%
  Neu: 10.5%
  PT: 16.4 s
  Plat: 135.4 x10_4/uL
  RBC: 577.5 x10_4/ul
  Ret: 5.3%
  WBC: 35.2 x10_2/uL
  KIDNEY_L: 1.1 g
  KIDNEY_R: 1.2 g
  KIDNEY_TOTAL: 2.3 g
  LIVER: 12.9 g
  A/G: 1.1
  ALP: 982 IU/L
  ALT: 32 IU/L
  AST: 71.5 IU/L
  BUN: 19 mg/dL
  CRE: 0.2 mg/dL
  Ca: 10.8 mg/dL
  Cl: 106.5 meq/L
  DBIL: 0.01 mg/dL
  GLC: 192.5 mg/dL
  IP: 5.7 mg/dL
  K: 3.9 meq/L
  LDH: 214 IU/L
  Na: 141.5 meq/L
  PL: 138.5 mg/dL
  RALB: 3.4 g/dL
  TBIL: 0.05 mg/dL
  TC: 73 mg/dL
  TG: 42.5 mg/dL
  TP: 6.5 g/dL
  gamma-GTP: 2 IU/L
